# From PubChem BioAssay AID1549 (Sanford-Burnham Center for Chemical Genomics, 2009)
# Calls of active or inactive are those of the source. How the calls were made is not given here.
# Target: Influenza A virus M2 proton channel (A/TW/4845/1999 H1N1)
# Assay: NMR binding screen, influenza A virus M2 proton channel, Kd (AID 1549)
# Conditions: M2 protein
row,SMILES,Kd
1,CCn1c(=O)cc(N2CCC3(CC2)OCCO3)[nH]c1=O,> 4 mM (inactive)
2,O=C(NCc1ccccc1F)c1cccs1,> 4 mM (inactive)
3,Cn1nc(C(=O)Nc2cccnc2)cc1Cl,> 4 mM (inactive)
4,O=C(O)c1ccc(Nc2nncc(=O)[nH]2)cc1,> 4 mM (inactive)
5,CN1CN(Cc2ccccc2)CN/C1=N/[N+](=O)[O-],> 4 mM (inactive)
6,Cc1cc(C(=O)NCc2ccccc2Br)no1,> 4 mM (inactive)
7,CN1CCN(C(=S)c2ccc(N(C)C)cc2)CC1,> 4 mM (inactive)
8,CC(=O)NS(=O)(=O)c1ccc(C)cc1,> 4 mM (inactive)
9,Cc1cc(=O)n2[nH]c(C)cc2n1,> 4 mM (inactive)
10,O=S1(=O)CCC2CC=CCC21 (stereo not given),> 4 mM (inactive)
11,COc1c2ccoc2cc2oc(C)cc(=O)c12,> 4 mM (inactive)
12,CNC(=O)Oc1ccc2c(c1)[C@]1(C)CCN(C)[C@@H]1N2C,> 4 mM (inactive)
13,Nc1ccc2c(C(F)(F)F)cc(=O)oc2c1,> 4 mM (inactive)
14,O=C(CCc1n[nH]c(=O)[nH]c1=O)NCc1ccccc1,> 4 mM (inactive)
15,O=C(CSc1ccccc1)N1CCC2(CC1)OCCO2,> 4 mM (inactive)
16,CCOC(=O)c1cnc2n(c1=O)CCS2,> 4 mM (inactive)
17,COC(=O)CCC(C)[C@H]1CCC2C3C(C[C@H](O)[C@@]21C)[C@@]1(C)CC[C@@H](O)C[C@H]1C[C@H]3O (stereo not given in full),> 4 mM (inactive)
18,O=C(O)CC1C(=O)NCCN1Cc1ccccc1 (stereo not given),> 4 mM (inactive)
19,CN(C)C(=O)C12CCC(C)(C(=O)O1)C2(C)C (stereo not given),> 4 mM (inactive)
20,CC1=C/C(=C\c2c(O)[nH]c(=O)[nH]c2=O)C(C)=N1,> 4 mM (inactive)
21,COc1cccc(/C=C/C(=O)O)c1C(C)C,> 4 mM (inactive)
22,O=C(Nc1cnccn1)c1ccncc1,> 4 mM (inactive)
23,O=c1[nH]c(=O)c2[nH]cnc2[nH]1,> 4 mM (inactive)

row,SMILES,Kd
1,O=c1cc(-c2ccccc2)oc2cc(O)c(O)c(O)c12,> 4 mM (inactive)
2,Cc1nnc(Nc2cccnc2)[nH]c1=O,> 4 mM (inactive)
3,COC(=O)C1[C@H]2C[C@H]3c4[nH]c5ccccc5c4CCN3C[C@@H]2CC[C@@H]1O (stereo not given in full),> 4 mM (inactive)
4,Cc1nccc(-c2cccc(N)c2)n1,> 4 mM (inactive)
5,NCc1ccc2c(c1)OCCO2,> 4 mM (inactive)
6,CCC(C)C(=O)O[C@H]1[C@H](O)C2C(CN3CC(C)CCC3[C@@]2(C)O)C2C[C@]34O[C@]5(O)C(OC(=O)C(C)(O)C(C)O)CC[C@@]3(C)C5C(OC(C)=O)[C@@H](OC(C)=O)C4[C@@]21O (stereo not given in full),> 4 mM (inactive)
7,O=C1c2ccccc2C(=O)c2c1ccc(O)c2O,> 4 mM (inactive)
8,NC(=O)c1ccc(Cl)c(N2C(=O)CCC2=O)c1,> 4 mM (inactive)
9,CCOC(=O)C1CN(C)CCN1C (stereo not given),> 4 mM (inactive)
10,Cc1nn2c(=O)nc3sc4c(c3c2[nH]c1=O)CCCC4,> 4 mM (inactive)
11,S=C(Nc1ccccc1)Nc1nncs1,> 4 mM (inactive)
12,COC(=O)[C@]1(C)CC[C@]2(C)CC[C@]3(C)C4=CCc5c(cc(O)c(O)c5C)[C@]4(C)CC[C@@]3(C)C2C1 (stereo not given in full),> 4 mM (inactive)
13,CC(C)c1c(O)ccc2c1CCC1[C@@](C)(C=O)CCC[C@]21C (stereo not given in full),> 4 mM (inactive)
14,Cn1c(=O)c2c([nH]c(=O)n2C)n(C)c1=O,> 4 mM (inactive)
15,Cc1cc2c(nn1)CCc1nonc1-2,> 4 mM (inactive)
16,O=[N+]([O-])c1ccc2c(c1)N([O-])C1(CCCCC1)[N+]2=O,> 4 mM (inactive)
17,O=C1NCCCC1C(=O)N/N=C/c1ccccc1 (stereo not given),> 4 mM (inactive)
18,Cc1cc(C)n(CCCC(=O)O)n1,> 4 mM (inactive)
19,Cc1nc(-c2ccc(C(=O)N3CCOCC3)cc2)cs1,> 4 mM (inactive)
20,Nc1nc(-c2ccccc2)ns1,> 4 mM (inactive)
21,CC(=O)O[C@H]1CCC2(C)C3=C(CCC2C1(C)C)[C@]1(C)CCC(C(C)CCC=C(C)C)[C@@]1(C)CC3 (stereo not given in full),> 4 mM (inactive)
22,OCc1ccc2nsnc2c1,> 4 mM (inactive)
23,Cc1onc(-c2c(Cl)cccc2Cl)c1C(N)=O,> 4 mM (inactive)

row,SMILES,Kd
1,CC(=O)NC(=S)Nc1ccccc1C,> 4 mM (inactive)
2,Cc1cc(=O)n2[nH]cnc2n1,> 4 mM (inactive)
3,COc1cc(O)c2c(=O)c(O)c(-c3ccc(O)c(O)c3)oc2c1,> 4 mM (inactive)
4,CC1(C)NC(=O)N(CN2CCOCC2)C1=O,> 4 mM (inactive)
5,O=C(O)Cn1nnnc1-c1ccc(F)cc1,> 4 mM (inactive)
6,CC(C)c1ccc2c(c1O)CC[C@H]1C3=C(CC[C@]21C)C(=O)OC3,> 4 mM (inactive)
7,[O-][n+]1onc2c1CCc1c-2nc(-c2ccccc2)n1O,> 4 mM (inactive)
8,COc1ccc(C2NC(C(=O)O)CS2)cc1 (stereo not given),> 4 mM (inactive)
9,COc1cc(C(=S)N2CCCC2)cc(Cl)c1O,> 4 mM (inactive)
10,CC(=O)n1c(N)nc2ccccc21,> 4 mM (inactive)
11,Cc1ccc2c(c1)CCCN2C(=O)c1ccncc1,> 4 mM (inactive)
12,C=CCCCCCCCCCCCC(O)CC(O)COC(C)=O (stereo not given) (tested in a mixture with another compound),> 4 mM (inactive)
13,O=[N+]([O-])c1cccc(-c2c[n+](=O)c3c(n2[O-])CCC3)c1,> 4 mM (inactive)
14,CN1CCC(=NNC(=O)c2ccco2)CC1,> 4 mM (inactive)
15,CC(C)(O)[C@@H]1[C@H]2OC(=O)[C@@H]1[C@]1(O)C[C@H]3O[C@]34C(=O)O[C@H]2[C@]14C,> 4 mM (inactive)
16,C[C@]12CCC3C(CC[C@]4(O)C[C@@H](O)CC[C@]34C=O)[C@@]1(O)CCC2C1=CC(=O)OC1 (stereo not given in full),> 4 mM (inactive)
17,N=C1/C(=C\c2ccco2)C(=O)N=C2SC=NN12,> 4 mM (inactive)
18,Nc1ccccc1C(=O)N1CCNC(=O)C1,> 4 mM (inactive)
19,CC(=O)O[C@]1(C)CC[C@@]23CC1C(C)(C)[C@@H]2CC[C@H]3C,> 4 mM (inactive)
20,O=C1C=C(O)c2ccccc2C1=O,> 4 mM (inactive)
21,CCNS(=O)(=O)c1ccc(OC)c(C)c1,> 4 mM (inactive)
22,Nc1nnc(Cc2ccc(Cl)cc2)s1,> 4 mM (inactive)
23,Cc1cc(NC(=O)c2cnn3cccnc23)no1,> 4 mM (inactive)

row,SMILES,Kd
1,O=C(O)CC[N+](=O)[O-],> 4 mM (inactive)
2,O=C(O)CNS(=O)(=O)c1cccs1,> 4 mM (inactive)
3,O=C(O)c1ccc2c(c1)OCO2,> 4 mM (inactive)
4,CC(=O)NC(=S)Nc1cccc(C(=O)O)c1C,> 4 mM (inactive)
5,Nc1nc(NCc2ccco2)nn1-c1ccccc1,> 4 mM (inactive)
6,NC1=C(c2ccccc2)C(=O)c2ccccc21,> 4 mM (inactive)
7,CC(=O)N(c1ccccc1)C1C=CS(=O)(=O)C1 (stereo not given),> 4 mM (inactive)
8,CC(=O)Nc1ccc(C(=O)NC2=NCCS2)cc1,> 4 mM (inactive)
9,S=C(NCC1CCCO1)NC1CC1 (stereo not given),> 4 mM (inactive)
10,NC(N)=NOCC[C@H](N)C(=O)O,> 4 mM (inactive)
11,Cc1csc(NC(=O)c2cccs2)n1,> 4 mM (inactive)
12,Cc1scc(C(=O)Nn2cnnc2)c1-c1ccccc1,> 4 mM (inactive)
13,O=C(NCc1ccco1)c1nc2ncccn2n1,> 4 mM (inactive)
14,CN(Cc1nc2ccccc2n1C)S(C)(=O)=O,> 4 mM (inactive)
15,C=C1CCC2[C@](C)(CO)[C@H](O)CC[C@@]2(C)[C@@H]1C/C=C1/C(=O)OC[C@H]1O (stereo not given in full),> 4 mM (inactive)
16,COC1CC(O[C@H]2CC[C@]3(C=O)C4CC[C@]5(C)C(C6=CC(=O)OC6)CC[C@]5(O)C4CC[C@]3(O)C2)OC(C)C1O (stereo not given in full),> 4 mM (inactive)
17,Cc1cc(C(=O)N2CCOCC2)c(C)o1,> 4 mM (inactive)
18,O=C(O)CCC(=O)NCc1cccnc1,> 4 mM (inactive)
19,CCOC(=O)C1C(=O)C2CCN1CC2 (stereo not given),> 4 mM (inactive)
20,O=C(O)CCSc1nc2ccccc2s1,> 4 mM (inactive)
21,COc1cc2ccc(=O)oc2c2ccoc12,> 4 mM (inactive)
22,Nc1ccc2nsnc2c1,> 4 mM (inactive)
23,O=C(O)CCc1nc2ccccc2[nH]c1=O,> 4 mM (inactive)

row,SMILES,Kd
1,Cc1ccccc1NC(=O)c1ccccc1,> 4 mM (inactive)
2,NCc1ccc(CN2CCOCC2)cc1,> 4 mM (inactive)
3,c1ccn(Cc2ccncc2)c1,> 4 mM (inactive)
4,Cc1nc2ccccc2c(=O)n1NC(=O)C1CCCCC1,> 4 mM (inactive)
5,O=C(O)c1ccc2c(c1)OCCCO2,> 4 mM (inactive)
6,COc1cccc(-c2nc3ccc(O)cc3c(=O)o2)c1,> 4 mM (inactive)
7,N#Cc1nc(N2CCCCC2)nc(N2CCOCC2)n1,> 4 mM (inactive)
8,Cc1n[nH]c(=S)[nH]c1=O,> 4 mM (inactive)
9,CC(=O)Nc1ccc(S(=O)(=O)N(C)C)cc1,> 4 mM (inactive)
10,COC(=O)CC1SC(=O)NC1=O (stereo not given),> 4 mM (inactive)
11,CS(=O)(=O)N1CCN(C(=O)c2ccccc2)C1,> 4 mM (inactive)
12,CCOC(=O)Cn1cnc2sc3c(c2c1=O)CCC3,> 4 mM (inactive)
13,Cc1ccc(-n2cnnn2)c2cccnc12,> 4 mM (inactive)
14,CC(C)CCCC(C)C1CCC2C3C[C@@H](O)[C@@]4(O)C[C@@H](O)CC[C@]4(C)C3CC[C@]12C (stereo not given in full),> 4 mM (inactive)
15,COC(=O)c1cc2ccccc2cn1,> 4 mM (inactive)
16,S=c1nc2c(n[nH]1)[nH]c1ccccc12,> 4 mM (inactive)
17,CCOc1ccc(C(=O)c2ccc(O)c(O)c2O)cc1,> 4 mM (inactive)
18,C[C@]12C=CC(=O)C=C1CCC1C2CC[C@]2(C)C(=O)CCC12 (stereo not given in full),> 4 mM (inactive)
19,Cc1cc(C)n2c(SCc3cccs3)nnc2n1,> 4 mM (inactive)
20,C#CCCCCCCCCCCCc1ccco1,> 4 mM (inactive)
21,CC(=O)O[C@H]1C[C@@]2(C)[C@@H](C[C@@H](O)C3[C@]2(C)CC[C@H]2[C@H](C)[C@H](O)CC[C@]32C)/C1=C(/CCC=C(C)C)C(=O)O (stereo not given in full),> 4 mM (inactive)
22,COc1ccc(C)cc1S(=O)(=O)NC1CCCC1,> 4 mM (inactive)
23,Cc1sc2nc(SCC(=O)N(C)C)[nH]c(=O)c2c1C,> 4 mM (inactive)
